This is an account of results in US20090110718A1, “Derivatives of tiacumicin B as anti-cancer agents” (Echem Hightech Co., Ltd., priority 2007, published 2009).

Holding throughout (format): cell-based, human
Experiment [1] relates to HeLa cervical cancer cells. Kind of experiment: Cell viability assay (MTT), HeLa. The following applies: for IC50: 72 hrs treatment, 1 to 10 μM tested, MTT, ± SD, read-out: Observed IC50 for HeLa cervial cancer cells. How it is done:
(§1) Experiments were performed using different cancer cell-lines, which were supplied by the American Type Culture Collection (ATCC), Rockville, Md., USA, and maintained in the recommended culturing media. The detailed steps and condition for cell culture are described as the following: HeLa, humen cervical adenocarcinoma: Minimum essential medium (Eagle) with 2 mM L-glutamine and Earle's BSS adjusted to contain 1.5 g/L sodium bicarbonate, 0.1 mM non-essential amino acids and 1.0 mM sodium pyruvate and supplemented with 0.01 mg/ml insulin, 90%; fetal bovine serum, 10%. […] All test samples were dissolved in absolute ethanol and serial diluted to the testing concentrations. For blank sample, absoluted ethanol was used. The final organic solvent content for all cell assays were less than or equal to 0.1%. The cell viability assay was conducted by using the method described by J. Carmichael, et al in Cancer Research 47:936 (1987). All the cells were seeded into 96-well microtitre plates and incubated at 37° C. under 5% CO2 atmosphere. For MCF7, T-47D and WS1, 3000 cells/100 μl/well were used and for HeLa, 1000 cells/100 μl/well were used. […] After additional 72 hours of incubation at 37° C. under 5% CO2 atmosphere, the cell were then collected and evaluated using MTT assay to assess the cell viability by using the method mentioned above. Error bars are indicated the estimated standard deviation based on three experiments.

In the next experiment the test system is MCF7 breast cancer cells. Put plainly: Cell viability assay (MTT), MCF7. The conditions noted are these: for IC50: 72 hrs treatment, 1 to 10 μM tested, MTT, ± SD, read-out: Observed IC50 for MCF7 breast cancer cells. How it is done:
as §1, with “MCF7, human breast” for “HeLa, humen cervical”, “[…] Cultures containing 3000 cells per well were treated with 0, 1, 2.5, 5 and 10 μM (final concentration) of the test samples and the viable cells were counted after 72 hrs. […] In both FIG. 1 and FIG. 2, error” for “Error”

In experiment [2] the test system is T-47D breast cancer cells. Kind of experiment: Cell viability assay (MTT), T-47D. The conditions noted are these: 72 hrs treatment, 1 to 10 μM tested, ± SD, read-out: Observed IC50 for T-47D breast cancer cells. How it is done:
as §1, with “media.” for “media. The detailed steps and condition for cell culture are described as the following: HeLa, humen cervical adenocarcinoma: Minimum essential medium (Eagle) with 2 mM L-glutamine and Earle's BSS adjusted to contain 1.5 g/L sodium bicarbonate, 0.1 mM non-essential amino acids and 1.0 mM sodium pyruvate and supplemented with 0.01 mg/ml insulin, 90%; fetal bovine serum, 10%.”, “[…] Cultures containing 3000 cells per well were treated with 0, 1, 2.5, 5 and 10 μM (final concentration) of the test samples and the viable cells were counted after 72 hrs. […] In both FIG. 1 and FIG. 2, error” for “Error”

One may read the IC50 as the concentration at which inhibition is half-maximal. As to `CCc1c(Cl)c(O)c(Cl)c(O)c1C(=O)O[C@@H]1[C@@H](O)[C@@H](OC)[C@@H](OC/C2=C\C=C\CC(O)/C(C)=C/C(CC)C(O[C@@H]3OC(C)(C)[C@H]4OC(c5ccccc5C)O[C@@H]4[C@@H]3OC(=O)C(C)C)/C(C)=C/C(C)=C/CC(C(C)O)OC2=O)O[C@H]1C` (some centres unmarked) [TB1, 2-methylbenzylidene acetal], the values for the 50% inhibitory concentration (IC50) (in experiment [1]; in the experiment on MCF7 breast cancer cells; in experiment [2]) were 5.88 ± 0.42 µM, 7.06 ± 0.83 µM and 3.99 ± 0.58 µM, respectively.

In the case of `CCc1c(Cl)c(O)c(Cl)c(O)c1C(=O)O[C@@H]1[C@@H](O)[C@@H](OC)[C@@H](OC/C2=C\C=C\CC(O)/C(C)=C/C(CC)C(O[C@@H]3OC(C)(C)[C@H]4OC(c5cccc(O)c5)O[C@@H]4[C@@H]3OC(=O)C(C)C)/C(C)=C/C(C)=C/CC(C(C)O)OC2=O)O[C@H]1C` (some centres unmarked) [TB2, 3-hydroxylbenzylidene acetal], the IC50 is 5.98 ± 0.22 µM in experiment [1], 6.9 ± 0.36 µM in the experiment on MCF7 breast cancer cells and 4.24 ± 0.05 µM in experiment [2]. The “IC50 value compared with tamoxifen, MCF7” value in the experiment with MCF7 breast cancer cells (statement in words) is listed as “superior to that of tamoxifen”.

`CCc1c(Cl)c(O)c(Cl)c(O)c1C(=O)O[C@@H]1[C@@H](O)[C@@H](OC)[C@@H](OC/C2=C\C=C\CC(O)/C(C)=C/C(CC)C(O[C@@H]3OC(C)(C)[C@H]4OC(c5cccc(OC)c5)O[C@@H]4[C@@H]3OC(=O)C(C)C)/C(C)=C/C(C)=C/CC(C(C)O)OC2=O)O[C@H]1C` (some centres unmarked) [TB3, 3-methoxylbenzylidene acetal]: the concentration for half-maximal inhibition (IC50) in experiment [1] was found to be 5.99 ± 0.45 µM; with MCF7 breast cancer cells, 7.09 ± 0.54 µM; in experiment [2], 4.99 ± 0.22 µM.

As for `CCc1c(Cl)c(O)c(Cl)c(O)c1C(=O)O[C@@H]1[C@@H](O)[C@@H](OC)[C@@H](OC/C2=C\C=C\CC(O)/C(C)=C/C(CC)C(O[C@@H]3OC(C)(C)[C@H]4OC(c5ccccc5Cl)O[C@@H]4[C@@H]3OC(=O)C(C)C)/C(C)=C/C(C)=C/CC(C(C)O)OC2=O)O[C@H]1C` (some centres unmarked) [TB4, 2-chlorobenzylidene acetal], the IC50 in experiment [1] turned out to be 5.69 ± 0.24 µM; in the experiment with MCF7 breast cancer cells it was 6.81 ± 0.01 µM; in experiment [2], 5.66 ± 0.62 µM.

On to `CCc1c(Cl)c(O)c(Cl)c(O)c1C(=O)O[C@@H]1[C@@H](O)[C@@H](OC)[C@@H](OC/C2=C\C=C\CC(O)/C(C)=C/C(CC)C(O[C@@H]3OC(C)(C)[C@H]4OC(c5ccccc5C(F)(F)F)O[C@@H]4[C@@H]3OC(=O)C(C)C)/C(C)=C/C(C)=C/CC(C(C)O)OC2=O)O[C@H]1C` (some centres unmarked) [TB5, 2-trifluoromethylbenzylidene acetal], for which the IC50 in experiment [1] was found to be 5.6 ± 0.37 µM; with MCF7 breast cancer cells, 5.95 ± 0.46 µM; in experiment [2], 4.66 ± 0.57 µM.

Turning to `CCc1c(Cl)c(O)c(Cl)c(O)c1C(=O)O[C@@H]1[C@@H](O)[C@@H](OC)[C@@H](OC/C2=C\C=C\CC(O)/C(C)=C/C(CC)C(O[C@@H]3OC(C)(C)[C@H]4OC(c5ccc(N(CC)CC)cc5)O[C@@H]4[C@@H]3OC(=O)C(C)C)/C(C)=C/C(C)=C/CC(C(C)O)OC2=O)O[C@H]1C` (some centres unmarked) [TB6, 4-N,N-diethylaminobenzylidene acetal], the IC50 in experiment [1] worked out at 5.56 ± 0.13 µM; in the experiment on MCF7 breast cancer cells, 5.98 ± 0.54 µM; in experiment [2] it was 4.77 ± 0.51 µM. For the same compound, the “IC50 value compared with tamoxifen, HeLa” value in experiment [1] (statement in words) was “superior to that of tanoxifen”.

For the compound `CCc1c(Cl)c(O)c(Cl)c(O)c1C(=O)O[C@@H]1[C@@H](O)[C@@H](OC)[C@@H](OC/C2=C\C=C\CC(O)/C(C)=C/C(CC)C(O[C@@H]3OC(C)(C)[C@H]4OC(c5ccc(N(CC)CC)cc5OC)O[C@@H]4[C@@H]3OC(=O)C(C)C)/C(C)=C/C(C)=C/CC(C(C)O)OC2=O)O[C@H]1C` (some centres unmarked) [TB7, 4-N,N-diethylamino-2-methoxybenzylidene acetal], the IC50 in experiment [1] was 5.3 ± 0.49 µM; in the experiment with MCF7 breast cancer cells, 6.19 ± 0.68 µM; in experiment [2], 4.8 ± 0.46 µM.

Turning to `CCc1c(Cl)c(O)c(Cl)c(O)c1C(=O)O[C@@H]1[C@@H](O)[C@@H](OC)[C@@H](OC/C2=C\C=C\CC(O)/C(C)=C/C(CC)C(O[C@@H]3OC(C)(C)[C@H]4OC(c5cc(C(C)(C)C)c(O)c(C(C)(C)C)c5)O[C@@H]4[C@@H]3OC(=O)C(C)C)/C(C)=C/C(C)=C/CC(C(C)O)OC2=O)O[C@H]1C` (some centres unmarked) [TB8, 4,5-tert-dibutyl-4-hydroxybenzylidene acetal], the IC50 stood at 5.76 ± 0.32 µM in experiment [1], 5.78 ± 0.81 µM in the experiment on MCF7 breast cancer cells and 4.04 ± 1.09 µM in experiment [2].

Turning to “tiacumicin B [tiacumicin B (TB), reference compound]”, the IC50 in experiment [1] was found to be 8.54 ± 1.03 µM; in the experiment with MCF7 breast cancer cells it was 8.39 ± 1 µM; in experiment [2] it was 5.56 ± 0.57 µM.
